Patent US20050059574A1 (priority 2000, published 2005)
“And” between values parts separate entries of the source, which are not always exact repeats. Equal values may be shown once.

Assays:
[1] = background statement; bound to thyroxine-binding globulin in human serum; cited from earlier work
[2] = Serum total T3 levels after T3a bolus during cardiac resuscitation in dogs; assay type: in vivo, dog
Experimental: Subsequent blood samples were obtained from the arterial circulation at 0.5 to 1.5 minutes after the bolus injection, and also at 15 to 20 minutes and 30 minutes, respectively.
Before sending the blood sample for immunoassay, in each experiment all the blood samples were collected in red-topped serum separator tubes. The tubes were centrifuged at 2500 rpm on a tabletop centrifuge for 10 minutes at 4° C. to separate the cells from the serum. The blood samples were then stored and frozen at −4° C.

[3] = system: purified cultured cardiac myocytes; settings: 125I-T3 at 10^−8 M
[4] = Pharmacokinetic studies in a rodent model: serum T3 after single intramuscular bolus; assay type: in vivo, rat; settings: rats; for Serum T3 level as % of the peak value: within 2 hours of injection
[5] = system: dogs with electrically induced ventricular fibrillation; assay: Phase Ia (methodology section): fibrillation/defibrillation in dogs with T3a or epinephrine; assay type: in vivo, dog; settings: individual dogs
Excerpt: Phase 1a was dedicated towards developing the basic methodology in the initial experiments, manual chest compression (CPR) and an internal defibrillator were employed. Induction of ventricular fibrillation and defibrillation were problematic with the internal electrodes because of the size mismatch: electrodes designed for humans being used in a smaller sized animal. In later experiments, the internal system was replaced with an LV pacing catheter connected to AC current via a step-down transformer (to induce ventricular fibrillation), and a new external, “hands-off” defibrillator. The manual chest compression was replaced with a THUMPER CPR system.
In the experiments, T3a was given 30 seconds before defibrillation. Preferably, T3a injection was given 60 to 90 seconds after defibrillation.
The results section was divided into Phases Ia (n=9) and Ib (n=8). The hemodynamic data were not consistently available in Phase Ia as there was no spontaneous or induced recovery except for 3 animals. Use of T3a was limited to only 3 dogs in this phase although epinephrine was used in 5 of them. This phase was dedicated towards the development of the Phase Ib parameters.
HVS-02 Fibrillator and Defibrillator were used in the tests. The operating instructions for the HVS-02 Fibrillator and Defibrillator can be found in the Manual for HVS-02 Fibrillator and Defibrillator.
Phase Ia was dedicated towards developing the basic methodology. […] In 3 animals, the hemodynamic data after defibrillation were less than the pre-fibrillatory data. […] In the experiments, internal defibrillator was used for the preliminary experiments and T3a was given just before defibrillation (30 seconds). Moreover, THUMPER CPR was used in the last 2 dogs instead of manual CPR. Thumper CPR worked well and it was used for the subsequent T3a experiments of Phase Ib. Manual chest compression was maintained for another 5 minutes after defibrillation and T3a or epinephrine injections. Bolus epinephrine injection (100 μg/kg) was used in 5 random dogs.

[6] = system: dogs with electrically induced ventricular fibrillation; assay: Phase Ib: cardiac resuscitation of dogs after induced ventricular fibrillation (Thumper CPR, external defibrillation, T3a bolus into right ventricle); assay type: in vivo, dog; settings: Post T3a (15 m), individual dogs
Experimental: All animals were fasted overnight and anesthesia was induced by intravenous sodium thiopental (Pentothal sodium 15-25 mg/kg). After intubation and ventilation by a ventilator (North American Dräger, Anesthesia and Ventilator, Model AVE-K, Serial No. 5033), anesthesia was maintained by 2% isoflurane (Isoflurane Vaporizer, R-Vapor, R-24045), and oxygen. ECG (Hewlett Packard Model No. 78346A). Oxygen saturation was monitored continuously. Preoperatively, all animals received Acepromazine maleate, 0.25-0.5 mg, I.M, lactated Ringer's solution was given intravenously (250 ml-350 ml/hr) during the procedure.
A 8.5Fr. catheter sheath was introduced into the right femoral artery and the side arm was connected to a fluid transducer for the continuous measurement of systemic arterial blood pressure. A 7Fr. Bipolar Multipurpose A-2 Electrode Catheter, 1 Lumelec™ (Lot no. 30395908, Catalog no. 528-724, Cordis, USA) tipped with pressure transducer with 2 side holes, 2 electrodes with an open end, 125 cm long, and 0.038 inch diameter, was advanced through the catheter sheath, and placed into the left ventricle. Continuous measurement of the systemic left ventricular pressure was obtained. Analog signals from the pressure transducers were obtained using an amplifier (PM-1000, CWE Inc., Ardmore, Pa.).
A 8.5Fr. catheter sheath was introduced into the right femoral vein and a 7Fr. MP A2, Multipurpose high flow catheter (catalog no. 527-742, Cordis, USA) with open end and side holes was placed into the right ventricle for T3a injections. Another 7Fr. catheter sheath was introduced into the left femoral artery and a 6Fr. pigtail catheter (catalog no. 527-654S, 110 cm, 155° angled) was placed into the descending aorta for the collection of aortic blood samples after T3a injections into the right ventricle. ECG (Hewlett-Packard, Model No. 78346A, Ser. No. 2320A00522) was continuously monitored. A temperature-monitoring device (T. SIN, Japan, designed for YSI series 400 thermistors), connected to the data acquisition system, was introduced into the external ears of all the animals to continuously measure body temperature.
The two distal ends of the 7Fr. Bipolar Multipurpose A-2 Electrode Catheter were connected to a Transformer. The electrical system can deliver 15V, 20 mA AC current through the pacing catheter system. The anesthesia was stopped. A venous blood sample from the right ventricle was obtained. Lid reflexes returned in several minutes.
The lid reflexes were checked by the finger method system and when frequent blinking of the lids was obtained, procedures for the ventricular fibrillation were carried out. […]
The force of compression necessary to achieve this baseline condition was recorded and not altered during subsequent provision of chest compressions. […]

NC(Cc1cc(I)c(Oc2cc(I)c(O)c(I)c2)c(I)c1)C(=O)O (stereo not shown) [T4]
Half-life [1]: 140 to 170 h

N[C@@H](Cc1cc(I)c(Oc2ccc(O)c(I)c2)c(I)c1)C(=O)O [T3, 3,5,3′-triiodothyronine]
Time serum T3 levels were maintained at high level ([2]; 4 μg T3/kg): 30 min
Serum T3 levels ([2]; 4 μg T3/kg, within 2 minutes of drug administration): greater than 9000 ng/dl
Increase of serum T3 level over baseline ([2]; bolus 4 μg/kg, one minute after injection, baseline 87±6 ng/dl): 100 fold
Time to detection of T3 in the nucleus of the cell [3]: ≤ 5 min
Half-life of T3 in serum, 5 μg/kg versus 100 μg/kg ([4]; i.m.): identical
Serum T3 level as % of peak values ([4]; i.m., 24 hours after injection, within normal physiological range): 10%
Serum T3 level as % of the peak value ([4]; i.m., high dose 100 μg/Kg): 64%
Serum T3 level as % of the peak value ([4]; i.m., low dose 5 μg/Kg): 90%
Time to peak serum T3 values ([4]; intramuscular, 5 μg/Kg and 100 μg/Kg): ≤ 30 min

CNC[C@H](O)c1ccc(O)c(O)c1 [Epi, epinephrine]
Recover ([5]; After D-Fib (+ drug)): No (2×) and Yes
D. AoP ([5]; Post (15 m)): 76.1 mmHg
Recover ([5]; Post (15 m)): No (2×) and Yes
S. AoP ([5]; Post (15 m)): 89.3 mmHg
S. LVP ([5]; Post (15 m)): 110.2 mmHg
D. AoP [6]: 64.0 mmHg
Recover [6]: Yes
S. AoP [6]: 82.7 mmHg
S. LVP [6]: 103.0 mmHg
